One data set relates to A/Kumamoto/5/67 (H2N2). The experiment in a line: microbe, parasite or virus in culture. It is filed as cell-based. The note with it: Influenza A virus, H2N2, MDCK, 72 h.
In a further data set the test system is A/Osaka/5/70 (H3N2). In words: Anti-viral activities against subtypes of influenza A and B (plaque number). In kind it is cell-based. The note with it: Influenza A virus, 72 h.
Data set [1] in a line: Cytotoxicity for MDCK cells. It is filed as cell-based. Conditions: dog, Cell: MDCK, no virus. The procedure: As in the measurement of anti-viral activity, samples were added to the cells, and incubated with 50 µl of culture medium instead of the viral dilution. The results are expressed as CC50 which is defined as the concentration of the compound at which 50% of the cells are killed due to the toxicity of the compound.
MDCK cells (derived from dog kidney) were cultured on 12-well plates using E-MEM supplemented by 10% fetal bovine serum. To each well was added 250 µl each of a viral dilution prepared by 10-fold serial dilution with E-MEM, followed by incubation for one hour under 5% CO2 at 37 °C. After removal of the viral solution, one ml of E-MEM containing 0.8% agarose, 0.5% bovine serum albumin and 2 µg/ml trypsin, and an appropriately diluted test compound was added. The plate was inverted, and incubated for 3 days under 5% CO2 at 37 °C. The number of plaques formed was counted, and the IC50 value, which is the concentration of the compound at which the number of plaques decreases by 50% compared to that of control which lacks the test compound, was determined. As in the above section 2), CC50 values for MDCK cells were determined.

In a further data set the test system is A/WSN/33 (H1N1). The experiment in a line: Anti-viral activities against subtypes of influenza A and B (plaque number). The note with it: Influenza A virus, 72 h. It is filed as cell-based.
For another data set, the system named is B/91N759. Described as above. In kind it is cell-based. The note with it: Influenza B virus, 72 h.
Another data set relates to A/91/N796 (H3N2). The description is as above. It is filed as cell-based. The note with it: Influenza A virus, 72 h.
In data set [2] the test system is Influenza virus A/WSN/33 (H1N1). The experiment in a line: microbe, parasite or virus in culture. In kind it is cell-based. The note with it: viral strain: Influenza virus A/WSN/33 (H1N1), Cell: MDBK, […], 3 days.
The subject of another data set is MDBK cells. Conditions: Cell: MDBK, no virus; concentration at which 50% of the cells are killed; 4320 min.
For a further data set, the system named is influenza A and B. Conditions: administered orally or intraperitoneally; cited from earlier work.
The next data set can be described thus: in vitro. Conditions: bovine.
The mark [3] stands for this setting: (3): A/Osaka/5/70 (H3N2), Cell: MDCK, number of plaques decreases by 50%, 3 days, read-out: IC50.
[4] abbreviates: (1): A/WSN/33 (H1N1), Cell: MDCK, number of plaques decreases by 50%, 3 days, read-out: IC50.
Where [5] appears, read: (5): B/91N759, Cell: MDCK, number of plaques decreases by 50%, 3 days, read-out: IC50.
The mark [6] stands for this setting: (4): A/91/N796 (H3N2), Cell: MDCK, number of plaques decreases by 50%, 3 days, read-out: IC50.

Values after ≈ are worked out from the molar mass of the structure shown. Like-named read-outs stand apart in the source and are kept apart here. Bounds are passed on as bounds.

`C[C@H]1CC[C@H]2C(C)(C)[C@@H](O)CC[C@]23Oc2c(c(O)cc4c2CNC4=O)C[C@]13C` [SQ-02-S5(2), (6a R, 7S, 9a S, 11 S, 13a S)-2,3,6,6a, 7,8,9,9a, 10, 11, 12, 13-dodecahydro-5, 11-dihydroxy-6a, 7, 10, 10-tetramethyl-3-oxo-1H-benzo[8,8a][1]benzopyrano[2,3-e]isoindole]: the IC50 was 0.1 to 1 µg/mL (≈ 0.259 to 2.59 µM) with A/Kumamoto/5/67 (H2N2); 0.1 to 1 µg/mL (≈ 0.259 to 2.59 µM) in the data set on A/Osaka/5/70 (H3N2) (H3N2, MDCK); 0.001 to 0.01 µg/mL (≈ 0.00259 to 0.0259 µM) in the data set on A/WSN/33 (H1N1) (MDCK); 1 µg/mL (≈ 2.59 µM) in the data set on B/91N759 (MDCK); 1 µg/mL (≈ 2.59 µM) with A/91/N796 (H3N2) (H3N2, MDCK). In data set [1], this compound returned a CC50 at 3 days of 25 µg/mL (≈ 64.9 µM).

`C[C@H]1CC[C@H]2C(C)(C)C(=O)CC[C@]23Oc2c(c(O)cc4c2C(=O)NC4=O)C[C@]13C` [SQ-02-S5-OX1(11)]: the IC50 was 0.01 to 0.1 µg/mL (≈ 0.0252 to 0.252 µM) with A/Kumamoto/5/67 (H2N2); 0.1 to 1 µg/mL (≈ 0.252 to 2.52 µM) in the data set with A/Osaka/5/70 (H3N2) (setting [3]); 0.001 to 0.01 µg/mL (≈ 0.00252 to 0.0252 µM) in the data set on A/WSN/33 (H1N1) (setting [4]); 0.1 µg/mL (≈ 0.252 µM) in the data set with B/91N759 (setting [5]); 1 µg/mL (≈ 2.52 µM) in the data set with A/91/N796 (H3N2) (setting [6]). Also, in [1], the CC50 lay within 25 to 30 µg/mL (≈ 62.9 to 75.5 µM).

`CCOC(=O)C=CC(=O)Nc1ccc(S(=O)(=O)O[C@H]2C[C@@]34Oc5c(c(O)cc6c5CNC6=O)C[C@]3(C)[C@@H](C)CC[C@H]4C(C)(C)[C@H]2O)cc1` [Compound (50f), (6aR, 7S, 9aS, 11R, 12S, 13aS)-12-[4-(3-ethoxycarbonyl-1-oxo-2-propenyl)amino] phenylsulfonyloxy-2,3,6,6a, 7,8,9,9a, 10, 11, 12, 13-dodecahydro-5, 11-dihydroxy-6a, 7, 10, 10-tetramethyl-3-oxo-1H-benzo[8,8a][1]benzopyrano[2,3-e]isoindole]: the 50% inhibitory concentration (IC50) in data set [2] is 0.01 µg/mL (≈ 0.0146 µM). This compound also returned a CC50 in the data set on MDBK cells of 5 µg/mL (≈ 7.32 µM).

Regarding `CC(=O)N[C@H]1[C@H]([C@H](O)[C@H](O)CO)OC(C(=O)O)=C[C@@H]1NC(=N)N` [4-guanidino-Neu5Ac2en], the “activity against influenza A and B” value in the data set on influenza A and B was “has not a satisfactory activity”.

Regarding `C[C@H]1CC[C@H]2C(C)(C)C(=O)CC[C@]23Oc2c(c(O)cc4c2CNC4=O)C[C@]13C` [SQ-02-S5-OX2(12)], the IC50 in the data set on A/Kumamoto/5/67 (H2N2) is 0.01 to 0.1 µg/mL (≈ 0.0261 to 0.261 µM); in the data set on A/Osaka/5/70 (H3N2) (setting [3]), 1 to 10 µg/mL (≈ 2.61 to 26.1 µM); in the data set on A/WSN/33 (H1N1) (setting [4]), 0.001 to 0.01 µg/mL (≈ 0.00261 to 0.0261 µM); with B/91N759 (setting [5]) it was 0.1 to 1 µg/mL (≈ 0.261 to 2.61 µM); with A/91/N796 (H3N2) (setting [6]), 1 µg/mL (≈ 2.61 µM). In data set [1], this compound displayed a CC50 of 25 to 50 µg/mL (≈ 65.2 to 130 µM).

Compound `CC(=O)O[C@@H]1C(=O)C[C@@]23Oc4c(c(O)cc5c4CNC5=O)C[C@]2(C)[C@@H](C)CC[C@H]3C1(C)C` [Compound (53a), (6aR, 7S, 9aS, 11S, 13aS)-11-acetoxy-2,3,6,6a, 7,8,9,9a, 10 11, 12, 13-dodecahydro-5-hydroxy-6a, 7, 10, 10-tetramethyl-3,12-dioxo-1H-benzo[8,8a][1]benzopyrano[2,3-e]isoindole] had a half-inhibitory concentration (IC50) in data set [2] of 0.04 to 0.08 µg/mL. Moreover, in the data set with MDBK cells, the CC50 was above 10 µg/mL.

Consider `CCCCN1C(=O)c2cc(O)c3c(c2C1=O)O[C@@]12CC[C@H](O)C(C)(C)[C@@H]1CC[C@H](C)[C@@]2(C)C3` [Compound (32c), (6aR, 7S, 9aS, 11S, 13aS)-2-butyl-2,3,6,6a, 7,8,9,9a, 10, 11, 12, 13-dodecahydro-5, 11-dihydroxy-6a, 7, 10, 10-tetramethyl-13-dioxo-1H-benzo[8,8a][1]benzopyrano[2,3-e]isoindole], for which the CC50 at 72 h in “in vitro” (mdbk cells) turned out to be 5 µg/mL (≈ 11 µM). In addition, the 50% inhibitory concentration (IC50) in [2] (72 h, read-out: IC50) was 0.04 to 0.08 µg/mL (≈ 0.0878 to 0.176 µM).

The compound `C[C@H]1CC[C@H]2C(C)(C)[C@@H](O)[C@@H](OS(=O)(=O)c3ccccc3)C[C@]23Oc2c(c(O)cc4c2CNC4=O)C[C@]13C` [Compound (50e), (6a R, 7 S, 9a S, 11 R, 12 S, 13a S)-2,3,6,6a, 7,8,9,9a, 10, 11,12,13-dodecahydro-5,11-dihydroxy-6a, 7, 10, 10-tetramethyl-12-phenylsulfonyloxy-3-oxo-1H-benzo[8,8a][1]benzopyrano[2,3-e]isoindole] came in with a CC50 in the data set “in vitro” above 10 µg/mL. Further, the IC50 in data set [2] (72 h, read-out: IC50) was in the range of 0.0016 to 0.0032 µg/mL (≈ 0.00295 to 0.00591 µM).

For orientation: IC50 means the point on the concentration scale where inhibition reaches its midpoint.

The record behind these values is patent EP0855398B1, “SESQUITERPENE DERIVATIVES HAVING ANTIVIRAL ACTIVITY” (SHIONOGI & CO., LTD., priority 1995, dated 1997).
